Measured values from US8178132B2, “Magnesium-containing food compositions” (Magceutics, Inc., priority 2007, dated 2012).

Experiments:
rats [1] = test: Novel object recognition test in rats; format: in vivo, Sprague-Dawley rats
Method: In this example, the effect of magnesium supplementation on recognition memory was tested. Three groups of rats were used in these experiments: 1) young rats (three months old); aging rats (12-14 months old), and; 3) magnesium-treated aging rats (12-14 months old, diet supplemented with 6 mg/kg MgCl2 from 8 months of age). We used experimentally naive, female, Sprague-Dawley young […], aging (12-14 month old) and […] rats (Charles River) at the beginning of the behavior experiments. They were housed two per cage with continuous access to food and water under a 12:12 light-dark cycle, with light onset at 8:00 a.m. […] All experiments involving animals were approved by the Massachusetts Institute of Technology's and Tsinghua University Committees on Animal Care.
The three groups of rats were tested for recognition memory using an object recognition test with a single exposure to the object during training. The task is based on the natural tendency of rodents to explore new objects and tests the animals' memory capacity for distinguishing novel versus familiar objects.
Briefly, the rats were first individually habituated to the personnel and then to open-field arena during 2 weeks. […] The retention intervals were 10 min and 24 hours. Objects were cleaned thoroughly between trials with 20% ethanol solution to ensure the absence of olfactory cues. The particular objects for a given trial were randomly determined, but each object was used for only one trial per rat. Memory of the familiar object is associated with increased exploration of the new object and an exploration index (% correct) is calculated as new object inspection time/30.
In this example, the effect of magnesium supplementation on memory consolidation was studied. […]
Briefly, the rats were first individually habituated to the personnel and then to open-field arena during 2 weeks. […] The particular objects for a given trial were randomly determined, but each object was used for only one trial per rat. […]

rats [2] = system: rats
Method: Twenty 2-month old, male Sprague Dawley (SD) rats were housed in a temperature-controlled room (22° C. to 25° C.) with a dark period from 08:00 pm to 08:00 am daily. […] Over 7 days before the training and trial period began, each rat was handled and habituated to the maze and to Kellogg's Froot Loop cereal.
Each rat underwent a test of one trial, followed by an interval of 10-minutes, followed by another trial, and so on, for a total of 6 trials in one day. In each trial, each rat went through a sample run in the maze, followed by an interval of 15 seconds, followed by a choice run in the maze. In the sample run, the subject rat was forced to go to the left or to the right by the presence of a block, according to a pseudorandom sequence (with an equal number of left turns and right turns, and no more than two consecutive turns in the same direction). As a reward, Froot Loop cereal was available in the food well at the end of the run, regardless of the direction that was taken by virtue of the block. In the choice run, the block that had been present in the preceding sample run was removed, and the rat was allowed to choose to go to the left or to the right. As a reward, Froot Loop cereal was available in the food well at the end of the run, only when the rat had made a “correct choice” by choosing the direction opposite that taken in the preceding sample run. […]
On the first day (designated day 0) of the feeding of the two groups, as just described, each rat underwent a preliminary test of one trial, followed by an interval of 10 minutes, followed by another trial, and so on, for a total of 4 trials in one day. […] In this preliminary test, the choice accuracy level, or ratio of correct choices made, co, to the number of number of trials in the test, no, was determined for each rat. […]
Three groups of animals (young, aging, and magnesium-treated aging rats) were used. […] Spatial working memory was assessed using a T-maze non-matching-to-place task. […] Spatial working memory was first assessed on an elevated T-maze. […]

rats [3] = details: 2% in food for 8 days, cited from earlier work
[4] = system: mice genetically altered to present symptoms of Alzheimer's disease (AD); test: Modified Morris water maze test in AD mice; format: in vivo; details: AD mice aged 13 months, compared with aricept
Method: Another group, the control group, of 10 mice that were genetically altered to present symptoms of AD were fed a Control Diet, a diet of normal solid food and water, for 30 days.
The pool used was a pool of water in a circular metal tank (150 cm in diameter and 50 cm in depth) having a water height of 30 cm and a water temperature that was maintained at ˜22° C. The pool was placed in a moderately lit area and surrounded by a black curtain. An acrylic platform (15 cm in diameter) was placed 2 cm below the surface of the water in the middle of one quadrant of the pool, equidistant from the center and the edge of the pool. Outside the pool, a cue was placed so as to be visible to a mouse in the maze, allowing a mouse to use it as a landmark for spatial orientation. The cue remained unchanged throughout the test period.
On the first day of the training and testing period, the water in the pool was transparent, such that the platform was visible. Each mouse was trained to swim towards the platform and to stand on the platform so as not to be submerged in the pool. […] The amount of time the mouse took to find the platform, referred to as “escape latency,” was recorded for each trial.
On the second day of the training and testing period, a small quantity of milk was added to the water in the pool, such that the pool was opaque and the platform was no longer visible. […]

## [Cl-].[Cl-].[Mg+2] [MgCl2, magnesium chloride]
Rats [1]; aging rats 12-14 months, 6 mg/kg MgCl2 from 8 months of age, single training
  novel object exploration preference, 10 minute retention interval: preferentially explored the novel object to the same extent as young rats
Rats [1]; aging rats, 6 mg/kg MgCl2, single training
  novel versus familiar object discrimination, 24 hours retention: lose there ability to distinguish novel versus familiar objects
Rats [1]; aging rats, two training sessions separated by 10 minutes
  preference for the novel object, 24-hour retention after spaced training: retained a high level of preference
Rats [2]; after 8 days of training, 15 s delay
  asymptotic choice accuracy level: ~94%
Rats [2]; aging rats, MgCl2 diet, 2 and 5 min delays
  spatial working memory at increased delay: significantly enhanced the performance of the aging rats at 2 and 5 min delays
Rats [2]; aging rats, MgCl2 diet, 15 sec delay
  learning in non-matching-to-place task: performed significantly better from their first trials

## [O]=[Mg] [magnesium oxide]
Rats [3]
  side-effect: diarrhea and weight loss
Rats [3]; young (9-month) and aged (25-month) rats
  cognitive function: some sign of improvement of cognitive function

## CC12CC3CC(C)(C1)CC(N)(C3)C2 [memantine]
[4]
  reduction of the effects of AD on learning capacity, comparison of anti-AD drugs: better at reducing the effects of AD on learning capacity than aricept
